Reference: patent US8889704B2 (Array BioPharma Inc., priority 2011, dated 2014)
pIC50: −log10 of the molar value. Structures can show the parent of a compound that is named as a salt.

Experiments:
Format in all cases: biochemical
[1] = biological target: T1, GST-tagged recombinant full-length human Pim-2 (Homo sapiens, UniProt Q9P1W9); assay: PIM-2 Assay (as Example A); conditions: averaged IC50; 4 μM ATP, 1.0 μM PIM2tide, 1.5 nM Pim-2
T1 construct: GST-tagged recombinant full-length human Pim-2; GST
T1 sequence (Q9P1W9 whole entry): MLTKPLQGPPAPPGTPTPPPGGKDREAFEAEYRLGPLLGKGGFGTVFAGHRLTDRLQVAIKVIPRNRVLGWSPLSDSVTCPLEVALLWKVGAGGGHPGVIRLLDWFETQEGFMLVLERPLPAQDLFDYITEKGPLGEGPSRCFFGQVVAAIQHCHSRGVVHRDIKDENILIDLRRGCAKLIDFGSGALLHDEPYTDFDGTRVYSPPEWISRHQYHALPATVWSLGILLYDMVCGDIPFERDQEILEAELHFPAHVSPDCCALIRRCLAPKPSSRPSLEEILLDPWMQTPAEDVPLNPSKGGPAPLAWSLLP
In short: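 IC50 was derived by 4-parameter logistic fitting of percent-of-control data over a 10-point, 3-fold series (highest 10 μM, 2% DMSO). Reactions held 1.5 nM GST-Pim-2 (full-length, human), 4 μM [γ-33P]ATP and 1.0 μM PIM2tide for 60 min at 22 °C, pH 7.4; 33P-peptide captured on P81 filters.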

[2] = biological target: recombinant rat PIM-3 (Rattus norvegicus, UniProt O70444); assay: PIM-3 Assay (as Example A); conditions: averaged IC50; 30 μM ATP, 3.75 μM PIM2tide, 0.5 nM PIM-3
In short: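 33P incorporation from 30 μM [γ-33P]ATP into 3.75 μM PIM2tide by 0.5 nM rat PIM-3, 60 min at 22 °C in pH 7.4 MOPS buffer, read by P81 filter capture and scintillation counting. Compounds tested in 3-fold dilutions up to 10 μM final, 2% DMSO; percent-of-control data fitted by 4-parameter logistic for IC50.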

[3] = biological target: PIM-1 (Homo sapiens, UniProt P11309); assay: Enzyme PIM-1 Assay ([33P]ATP incorporation into PIM2tide, filter plate); conditions: averaged IC50; 35 μM ATP, 7.5 μM PIM2tide, 0.25 nM PIM-1, 60 min at 22° C.
PIM-1, sequence (P11309 whole entry, species assumed): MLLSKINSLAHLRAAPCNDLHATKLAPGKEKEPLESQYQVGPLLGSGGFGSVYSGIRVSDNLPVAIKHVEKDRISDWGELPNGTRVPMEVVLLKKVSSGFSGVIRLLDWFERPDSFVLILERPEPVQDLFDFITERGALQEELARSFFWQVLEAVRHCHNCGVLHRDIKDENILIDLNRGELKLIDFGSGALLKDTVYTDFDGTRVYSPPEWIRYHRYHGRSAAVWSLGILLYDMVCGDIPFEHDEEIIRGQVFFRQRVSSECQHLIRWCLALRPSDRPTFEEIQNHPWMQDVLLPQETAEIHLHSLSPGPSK
In short: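 Ten-point, 3-fold dilution series (10 μM top, 2% DMSO final) tested for inhibition of 33P transfer from 35 μM ATP to 7.5 μM PIM2tide by 0.25 nM PIM-1. Reaction 60 min, 22 °C, pH 7.4 MOPS/MgCl2 buffer; phosphocellulose capture, scintillation counting, IC50 where fitted POC equals 50.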

| SMILES | pIC50 [1] | pIC50 [2] | pIC50 [3] |
| --- | --- | --- | --- |
| N[C@H]1CCN([C@H](c2ccc3nnc(-c4ccc5cc(F)c(C6CC6)cc5n4)n3c2)C(F)(F)F)C1 [Example 176, (S)-1-((R)-1-(3-(7-cyclopropyl-6-fluoroquinolin-2-yl)-[1,2,4]triazolo[4,3-a]pyridin-6-yl)-2,2,2-trifluoroethyl)pyrrolidin-3-amine dihydrochloride] | 7.04 | 8.57 | 9.77 |
| N[C@H]1CCN([C@H](c2ccc3nnc(-c4ccc5cc(F)cc(C6CC6)c5n4)n3c2)C(F)(F)F)C1 [Example 177, (S)-1-((R)-1-(3-(8-cyclopropyl-6-fluoroquinolin-2-yl)-[1,2,4]triazolo[4,3-a]pyridin-6-yl)-2,2,2-trifluoroethyl)pyrrolidin-3-amine dihydrochloride] | < 7.00 | 8.77 | 9.51 |
| COc1c(F)cc2ccc(-c3nnc4ccc([C@@H](N5CC[C@H](N)C5)C(F)(F)F)cn34)nc2c1F [Example 178, (S)-1-((R)-1-(3-(6,8-difluoro-7-methoxyquinolin-2-yl)-[1,2,4]triazolo[4,3-a]pyridin-6-yl)-2,2,2-trifluoroethyl)pyrrolidin-3-amine dihydrochloride] | < 7.00 | 7.72 | 8.74 |
| COC[C@@H](C)Oc1ccc2ccc(-c3nnc4ccc([C@@H](N5CC[C@H](N)C5)C(F)(F)F)cn34)nc2c1F [Example 180, (S)-1-((R)-2,2,2-trifluoro-1-(3-(8-fluoro-7-((R)-1-methoxypropan-2-yloxy)quinolin-2-yl)-[1,2,4]triazolo[4,3-a]pyridin-6-yl)ethyl)pyrrolidin-3-amine dihydrochloride] | < 7.00 | 7.89 | 8.51 |
| N[C@@H]1CN([C@H](c2ccc3nnc(-c4ccc5cc(F)cc(C6CC6)c5n4)n3c2)C(F)(F)F)C[C@H]1O [Example 181, (3R,4R)-4-amino-1-((R)-1-(3-(8-cyclopropyl-6-fluoroquinolin-2-yl)-[1,2,4]triazolo[4,3-a]pyridin-6-yl)-2,2,2-trifluoroethyl)pyrrolidin-3-ol dihydrochloride] | 7.02 | 8.57 | 9.39 |
| CC(C)Oc1cccc2ccc(-c3nnc4ccc([C@@H](N5CC[C@](N)(CO)C5)C(F)(F)F)cn34)nc12 [Example 188, ((R)-3-amino-1-((R)-2,2,2-trifluoro-1-(3-(8-isopropoxyquinolin-2-yl)-[1,2,4]triazolo[4,3-a]pyridin-6-yl)ethyl)pyrrolidin-3-yl)methanol dihydrochloride] | 6.95 | 9.00 | 9.52 |
| CC(C)(C)c1cccc2ccc(-c3nnc4ccc([C@@H](N5CC[C@](N)(CO)C5)C(F)(F)F)cn34)nc12 [Example 189, ((R)-3-amino-1-((R)-1-(3-(8-tert-butylquinolin-2-yl)-[1,2,4]triazolo[4,3-a]pyridin-6-yl)-2,2,2-trifluoroethyl)pyrrolidin-3-yl)methanol dihydrochloride] | 7.07 | 8.82 | 9.24 |
| CC(C)Oc1cccc2ccc(-c3nnc4ccc([C@@H](N5CCC(N)(CO)C5)C(F)(F)F)cn34)nc12 (stereo partly drawn) [Example 197, (3-amino-1-((R)-2,2,2-trifluoro-1-(3-(8-isopropoxyquinolin-2-yl)-[1,2,4]triazolo[4,3-a]pyridin-6-yl)ethyl)pyrrolidin-3-yl)methanol dihydrochloride] | 6.82 | 9.05 | 9.52 |
| CC1(COc2ccc3ccc(-c4nnc5ccc([C@@H](N6CC[C@H](N)C6)C(F)(F)F)cn45)nc3c2)COC1 [Example 198, (S)-1-((R)-2,2,2-trifluoro-1-(3-(7-((3-methyloxetan-3-yl)methoxy)quinolin-2-yl)-[1,2,4]triazolo[4,3-a]pyridin-6-yl)ethyl)pyrrolidin-3-amine diformate] | 6.91 | 9.70 | 9.85 |
| Cc1cc(-c2cc3nc(-c4nnc5ccc([C@@H](N6CC[C@H](N)C6)C(F)(F)F)cn45)ccc3cc2F)n(C)n1 [Example 204, (3 S)-1-((1R)-1-(3-(7-(1,3-dimethyl-1H-pyrazol-5-yl)-6-fluoroquinolin-2-yl)-[1,2,4]triazolo[4,3-a]pyridin-6-yl)-2,2,2-trifluoroethyl)pyrrolidin-3-amine dihydrochloride] | < 6.00 | 8.52 | 9.32 |

Other lines, results leading:

| pIC50 [1] | pIC50 [2] | pIC50 [3] | SMILES |
| --- | --- | --- | --- |
| < 7.00 | 8.85 | 9.15 | COc1ccc2ccc(-c3nnc4ccc([C@@H](N5CC[C@H](N)C5)C(F)(F)F)cn34)nc2c1Cl [Example 175, (S)-1-((R)-1-(3-(8-chloro-7-methoxyquinolin-2-yl)-[1,2,4]triazolo[4,3-a]pyridin-6-yl)-2,2,2-trifluoroethyl)pyrrolidin-3-amine hydrochloride] |
| < 7.00 | 8.39 | 8.61 | COCCOc1ccc2ccc(-c3nnc4ccc([C@@H](N5CC[C@H](N)C5)C(F)(F)F)cn34)nc2c1F [Example 179, (S)-1-((R)-2,2,2-trifluoro-1-(3-(8-fluoro-7-(2-methoxyethoxy)quinolin-2-yl)-[1,2,4]triazolo[4,3-a]pyridin-6-yl)ethyl)pyrrolidin-3-amine dihydrochloride] |
| < 7.00 | 8.39 | 9.12 | N[C@H]1CCN([C@H](c2ccc3nnc(-c4ccc5cccc(Cl)c5n4)n3c2)C(F)(F)F)C1 [Example 182, (S)-1-((R)-2,2,2-trifluoro-1-(3-(8-chloroquinolin-2-yl)-[1,2,4]triazolo[4,3-a]pyridin-6-yl)ethyl)pyrrolidin-3-amine dihydrochloride] |
| < 7.00 | 8.92 | 9.57 | Cc1cccc2ccc(-c3nnc4ccc([C@@H](N5CC[C@H](N)C5)C(F)(F)F)cn34)nc12 [Example 183, (S)-1-((R)-2,2,2-trifluoro-1-(3-(8-methylquinolin-2-yl)-[1,2,4]triazolo[4,3-a]pyridin-6-yl)ethyl)pyrrolidin-3-amine dihydrochloride] |
| < 7.00 | 8.82 | 9.39 | Cc1cc(F)cc2ccc(-c3nnc4ccc([C@@H](N5CC[C@H](N)C5)C(F)(F)F)cn34)nc12 [Example 184, (S)-1-((R)-2,2,2-trifluoro-1-(3-(6-fluoro-8-methylquinolin-2-yl)-[1,2,4]triazolo[4,3-a]pyridin-6-yl)ethyl)pyrrolidin-3-amine dihydrochloride] |
| < 7.00 | 9.00 | 9.43 | COCc1cccc2ccc(-c3nnc4ccc([C@@H](N5CC[C@H](N)C5)C(F)(F)F)cn34)nc12 [Example 185, (S)-1-((R)-2,2,2-trifluoro-1-(3-(8-(methoxymethyl)quinolin-2-yl)-[1,2,4]triazolo[4,3-a]pyridin-6-yl)ethyl)pyrrolidin-3-amine dihydrochloride] |
| 7.17 | 9.40 | 9.80 | C[C@H](CO)Oc1cccc2ccc(-c3nnc4ccc([C@@H](N5CC[C@H](N)C5)C(F)(F)F)cn34)nc12 [Example 186, (R)-2-(2-(6-((R)-1-((S)-3-aminopyrrolidin-1-yl)-2,2,2-trifluoroethyl)-[1,2,4]triazolo[4,3-a]pyridin-3-yl)quinolin-8-yloxy)propan-1-ol dihydrochloride] |
| < 7.00 | 9.05 | 9.43 | C[C@H](O)COc1cccc2ccc(-c3nnc4ccc([C@@H](N5CC[C@H](N)C5)C(F)(F)F)cn34)nc12 [Example 187, (S)-1-(2-(6-((R)-1-((S)-3-aminopyrrolidin-1-yl)-2,2,2-trifluoroethyl)-[1,2,4]triazolo[4,3-a]pyridin-3-yl)quinolin-8-yloxy)propan-2-ol dihydrochloride] |
| < 7.00 | 9.00 | 8.99 | Cc1cnn(-c2ccc3ccc(-c4nnc5ccc([C@@H](N6CC[C@H](N)C6)C(F)(F)F)cn45)nc3c2C)c1 [Example 190, (S)-1-((R)-2,2,2-trifluoro-1-(3-(8-methyl-7-(4-methyl-1H-pyrazol-1-yl)quinolin-2-yl)-[1,2,4]triazolo[4,3-a]pyridin-6-yl)ethyl)pyrrolidin-3-amine dihydrochloride] |
| 7.13 | 9.70 | 9.70 | Cc1c(-c2cnn(C)c2)ccc2ccc(-c3nnc4ccc([C@@H](N5CC[C@H](N)C5)C(F)(F)F)cn34)nc12 [Example 191, (S)-1-((R)-2,2,2-trifluoro-1-(3-(8-methyl-7-(1-methyl-1H-pyrazol-4-yl)quinolin-2-yl)-[1,2,4]triazolo[4,3-a]pyridin-6-yl)ethyl)pyrrolidin-3-amine dihydrochloride] |
| 7.10 | 9.30 | 9.77 | CC1(COc2cccc3ccc(-c4nnc5ccc([C@@H](N6CC[C@H](N)C6)C(F)(F)F)cn45)nc23)COC1 [Example 192, (S)-1-((R)-2,2,2-trifluoro-1-(3-(8-(3-methyloxetan-3-yl)methoxy)quinolin-2-yl)-[1,2,4]triazolo[4,3-a]pyridin-6-yl)ethyl)pyrrolidin-3-amine diformate] |
